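Test compounds were applied to cells in 96-well plates for 48 hours at 5 doses. Here, GI50 denotes the concentration required for 50% inhibition of growth.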 Active and inactive are the calls of the source. Rule as the data show it: active = GI50 up to about 1.1 µM and inactive = higher.
How the values were obtained:
Experiment in all cases: inhibition of tumour cell growth, NCI panel, 48 h
[1] = tested on: ACHN
[2] = tested on: SNB-75
[3] = tested on: OVCAR-3
[4] = tested on: SK-OV-3
[5] = tested on: NCI-H226
[6] = tested on: EKVX
[7] = tested on: UO-31
[8] = tested on: SK-MEL-5
[9] = tested on: M14
[10] = tested on: SW-620
[11] = tested on: OVCAR-5
[12] = tested on: COLO 205
[13] = tested on: NCI-H460
[14] = tested on: MOLT-4
[15] = tested on: LOX IMVI
[16] = tested on: IGROV-1
[17] = tested on: HCT-15
[18] = tested on: SF-295
[19] = tested on: SF-268
[20] = tested on: OVCAR-8

SMILES	GI50 [1]	GI50 [2]	GI50 [3]	GI50 [4]	GI50 [5]	GI50 [6]	GI50 [7]	GI50 [8]	GI50 [9]	GI50 [10]	GI50 [11]	GI50 [12]	GI50 [13]	GI50 [14]	GI50 [15]	GI50 [16]	GI50 [17] [µM]	GI50 [18]	GI50 [19]	GI50 [20]
O=C(CCCn1cnc([N+](=O)[O-])n1)NCCn1ccnc1[N+](=O)[O-]	> 100 µM (inactive)	> 100 µM (inactive)	> 100 µM (inactive)	> 100 µM (inactive)	> 100 µM (inactive)	> 100 µM (inactive)	> 100 µM (inactive)	> 100 µM (inactive)	> 100 µM (inactive)	> 100 µM (inactive)	> 100 µM (inactive)	> 100 µM (inactive)	> 100 µM (inactive)	> 100 µM (inactive)	> 100 µM (inactive)	> 100 µM (inactive)	> 100	> 100 µM (inactive)	> 100 µM (inactive)	
C=CCOC1OC(CS(=O)(=O)O)C(O)C(O)C1O (centres undefined)		> 100 µM (inactive)	> 100 µM (inactive)	> 100 µM (inactive)	> 100 µM (inactive)		> 100 µM (inactive)	> 100 µM (inactive)	> 100 µM (inactive)	> 100 µM (inactive)	> 100 µM (inactive)	> 100 µM (inactive)	> 100 µM (inactive)	> 100 µM (inactive)	> 100 µM (inactive)	> 100 µM (inactive)	> 100	> 100 µM (inactive)		> 100 µM (inactive)
CN(C)CCOc1cc2c(c3ccccc13)-c1ccccc1C2O (centres undefined)		10.3 µM (inactive)	15.6 µM (inactive)	16.1 µM (inactive)	13.7 µM (inactive)	14.8 µM (inactive)	12.5 µM (inactive)	15.5 µM (inactive)		12.4 µM (inactive)	13 µM (inactive)	12.5 µM (inactive)	7.21 µM (inactive)	3.33 µM (inactive)	10.2 µM (inactive)	16.7 µM (inactive)	12.4	13.5 µM (inactive)	14.5 µM (inactive)	11.7 µM (inactive)
C1CSCCSCCSCCSC1	> 100 µM (inactive)	> 100 µM (inactive)	> 100 µM (inactive)	> 100 µM (inactive)	> 100 µM (inactive)	> 100 µM (inactive)	> 100 µM (inactive)	> 100 µM (inactive)	> 100 µM (inactive)	> 100 µM (inactive)	> 100 µM (inactive)	> 100 µM (inactive)	> 100 µM (inactive)	> 100 µM (inactive)	> 100 µM (inactive)	> 100 µM (inactive)	> 100	> 100 µM (inactive)	> 100 µM (inactive)	> 100 µM (inactive)
Nc1nc2ccc3ccccc3c2[nH]1	> 10 µM (inactive)	> 10 µM (inactive)	> 10 µM (inactive)	> 10 µM (inactive)	8.51 µM (inactive)	> 10 µM (inactive)	5.66 µM (inactive)	> 10 µM (inactive)	> 10 µM (inactive)	> 10 µM (inactive)	> 10 µM (inactive)	> 10 µM (inactive)	> 10 µM (inactive)	> 10 µM (inactive)	> 10 µM (inactive)	> 10 µM (inactive)	> 10	> 10 µM (inactive)	> 10 µM (inactive)	> 10 µM (inactive)
